# Laboratory results published in publication PMC9220351, “Evaluation of a Conformationally Constrained Indole Carboxamide as a Potential Efflux Pump Inhibitor in Pseudomonas aeruginosa” (Antibiotics, 2022).
# Assays:
# [1] = CellTiterGlo cytotoxicity assay; type: cell-based; conditions: human, 293T cells
# [2] = Solubility at pH 7.4; type: physicochemical; conditions: pH 7.4, aqueous buffer
# [3] = CellTiterGlo cytotoxicity assay; type: cell-based; conditions: human, A549 cells
# [4] = target: hERG channel (Homo sapiens, UniProt Q12809); assay: hERG patch clamp assay (Q-Patch, CHO cell line); type: cell-based
# Protocol: (§1) The metabolic stability of TXA09155 was determined in human, mouse, and rat liver microsomes by Eurofins (St. Charles, MO, USA) using the substrate depletion method (in vitro half-life (t1/2) method). Quantification was performed by LC/MS/MS. In this assay, depletion of the parent compound is measured over time to determine the compound’s in vitro t1/2 and hepatic extraction ratios (ER). This is used to predict metabolic clearance. […] This assay utilizes electrophysiology measurements on the electric current passing through the hERG channel heterologously expressed in a stable CHO cell line. Channels are open by a hERG-specific voltage protocol, and the compound effects are directly characterized by their block of the hERG current. The assay is performed on an automated platform, Q-Patch.
# [5] = Metabolic stability in rat liver microsomes; type: in vitro ADME
# Protocol: as §1
# [6] = tested on: P. aeruginosa K3698 (∆oprM); assay: MIC / potentiation assay, strain K3698; type: cell-based, Pseudomonas aeruginosa; conditions: Pseudomonas aeruginosa, read-out: MICs K3698 (∆oprM)
# Source text: P. aeruginosa ATCC 27853 was obtained from the American Type Culture Collection (ATCC; Manassas, VA, USA). P. aeruginosa multidrug-resistant isolates were obtained from the CDC and FDA Antibiotic Resistance Isolate Bank (Atlanta, GA, USA). P. aeruginosa DA7232 (gyrA-T83I, parC-S80L) was a kind gift from Prof. Dan I. Andersson, Uppsala University, Uppsala, Sweden, and has been characterized elsewhere. P. aeruginosa strains K767 (WT), K1455 (mexAB-oprM overexpressed), K2415 (mexXY-oprM overexpressed), and K3698 (oprM∆) were obtained from Prof. Keith Poole, Queen’s University, Kingston, Ontario, Canada and have been characterized elsewhere. Bacterial cells were grown in cation-adjusted Mueller Hinton (CAMH) media, brain heart infusion broth (BHI), or tryptic soy agar (TSA) plates were all obtained from Becton, Dickinson, and Company (BD; Franklin Lakes, NJ, USA). […] Azithromycin was purchased from Tokyo Chemical Industry (Portland, OR, USA). […] Ethidium bromide (EtBr) and glucose were purchased from VWR (Radnor, PA, USA). MC-04,124 and TXA01182 were synthesized at TAXIS Pharmaceuticals. Carbonyl cyanide 3-chlorophenylhydrazone (CCCP) was purchased from Enzo Life Sciences (Farmingdale, NY, USA). DiOC2 (3) and propidium iodide were obtained from Thermo Fisher Scientific (Waltham, MA, USA).
# MIC assays were performed as described previously.
# Sequence of hERG channel (Q12809 whole entry): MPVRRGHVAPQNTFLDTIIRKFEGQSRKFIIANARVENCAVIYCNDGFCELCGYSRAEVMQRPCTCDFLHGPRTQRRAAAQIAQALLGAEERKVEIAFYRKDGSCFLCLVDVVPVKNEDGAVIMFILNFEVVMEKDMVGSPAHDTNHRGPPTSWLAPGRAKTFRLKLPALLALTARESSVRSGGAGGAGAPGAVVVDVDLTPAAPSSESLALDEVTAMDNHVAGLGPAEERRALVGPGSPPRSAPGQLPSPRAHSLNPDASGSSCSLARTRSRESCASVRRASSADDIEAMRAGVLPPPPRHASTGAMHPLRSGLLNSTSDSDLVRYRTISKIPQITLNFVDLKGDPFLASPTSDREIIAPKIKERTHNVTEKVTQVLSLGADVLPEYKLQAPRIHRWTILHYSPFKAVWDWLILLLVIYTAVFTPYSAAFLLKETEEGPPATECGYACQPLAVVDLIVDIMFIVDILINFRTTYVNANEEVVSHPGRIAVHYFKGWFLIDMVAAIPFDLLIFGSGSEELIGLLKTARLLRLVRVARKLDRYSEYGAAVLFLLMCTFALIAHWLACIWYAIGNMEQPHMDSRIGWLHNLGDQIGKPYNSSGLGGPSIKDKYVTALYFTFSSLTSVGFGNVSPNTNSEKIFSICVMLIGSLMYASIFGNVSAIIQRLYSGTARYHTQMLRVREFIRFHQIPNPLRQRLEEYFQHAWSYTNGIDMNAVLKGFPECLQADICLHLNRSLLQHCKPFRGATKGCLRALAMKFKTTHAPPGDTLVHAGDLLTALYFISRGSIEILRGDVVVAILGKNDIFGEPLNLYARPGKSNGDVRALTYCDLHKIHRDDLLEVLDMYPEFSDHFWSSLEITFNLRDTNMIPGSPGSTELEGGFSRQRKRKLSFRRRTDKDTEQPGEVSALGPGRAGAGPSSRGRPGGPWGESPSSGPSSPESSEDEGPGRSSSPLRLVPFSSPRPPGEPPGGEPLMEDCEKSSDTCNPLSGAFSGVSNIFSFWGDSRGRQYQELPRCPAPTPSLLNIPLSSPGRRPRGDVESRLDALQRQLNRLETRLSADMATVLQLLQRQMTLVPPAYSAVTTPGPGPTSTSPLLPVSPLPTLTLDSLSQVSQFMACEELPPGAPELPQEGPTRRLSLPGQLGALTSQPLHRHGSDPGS
compound,measurement,setting,value
"Cl.NC[C@@H]1CN[C@H](CNC(=O)c2cc3ccc(-c4ccc(F)cc4)cc3[nH]2)C1 [TXA09155, N-(((2S,4R)-4-(aminomethyl)pyrrolidine-2-yl)methyl)-6-(4-fluorophenyl)-1H-indole-2-carboxamide hydrochloride salt]",IC50,[1],> 40 µM
same,solubility,[2],> 155 µM
same,IC50,[3],> 40 µM
same,IC50,[4],16 µM
same,HLM and RLM Metabolic Stability (RLM),[5],>60%
C[C@H]1COc2c(N3CCN(C)CC3)c(F)cc3c(=O)c(C(=O)O)cn1c23 [Levofloxacin],MIC,[6],0.031 µg/mL
